From ChEMBL document CHEMBL5291721, “A preclinical secondary pharmacology resource illuminates target-adverse drug reaction associations of marketed drugs” (Nat Commun, 2023)

Experiments:
[1] = biological target: T1, Alpha-1A adrenergic receptor (Homo sapiens, UniProt P35348); format: functional, cell-based
T1 sequence (P35348 whole entry): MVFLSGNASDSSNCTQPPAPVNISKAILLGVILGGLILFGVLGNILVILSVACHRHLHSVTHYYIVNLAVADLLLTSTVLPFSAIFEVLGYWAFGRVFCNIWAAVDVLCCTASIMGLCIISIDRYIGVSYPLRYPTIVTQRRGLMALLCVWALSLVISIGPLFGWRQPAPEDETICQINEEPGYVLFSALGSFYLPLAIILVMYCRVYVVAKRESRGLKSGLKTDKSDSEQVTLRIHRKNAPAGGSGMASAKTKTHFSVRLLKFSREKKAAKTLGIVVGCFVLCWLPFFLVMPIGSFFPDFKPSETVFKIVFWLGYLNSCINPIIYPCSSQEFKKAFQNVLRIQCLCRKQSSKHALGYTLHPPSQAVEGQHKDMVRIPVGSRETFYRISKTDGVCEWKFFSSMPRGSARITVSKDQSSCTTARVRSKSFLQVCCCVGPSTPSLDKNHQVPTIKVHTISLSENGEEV

[2] = biological target: Beta-2 adrenergic receptor (Homo sapiens, UniProt P07550)
Beta-2 adrenergic receptor, sequence (P07550 whole entry): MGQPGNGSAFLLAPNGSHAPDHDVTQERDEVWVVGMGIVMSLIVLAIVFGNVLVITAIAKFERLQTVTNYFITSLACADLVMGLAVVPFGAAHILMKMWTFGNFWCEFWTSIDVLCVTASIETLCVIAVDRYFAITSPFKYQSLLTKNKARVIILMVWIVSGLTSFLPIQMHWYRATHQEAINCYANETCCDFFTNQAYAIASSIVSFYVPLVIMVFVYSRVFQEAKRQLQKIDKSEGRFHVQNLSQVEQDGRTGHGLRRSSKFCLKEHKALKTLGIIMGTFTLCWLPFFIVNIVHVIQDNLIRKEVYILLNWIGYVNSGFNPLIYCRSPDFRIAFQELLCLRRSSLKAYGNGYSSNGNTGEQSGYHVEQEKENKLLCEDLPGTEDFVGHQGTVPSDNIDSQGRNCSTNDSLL

[3] = biological target: T1, Alpha-1A adrenergic receptor
[4] = biological target: T2, Alpha-2A adrenergic receptor (Homo sapiens, UniProt P08913); format: functional, cell-based
T2 sequence (P08913 whole entry): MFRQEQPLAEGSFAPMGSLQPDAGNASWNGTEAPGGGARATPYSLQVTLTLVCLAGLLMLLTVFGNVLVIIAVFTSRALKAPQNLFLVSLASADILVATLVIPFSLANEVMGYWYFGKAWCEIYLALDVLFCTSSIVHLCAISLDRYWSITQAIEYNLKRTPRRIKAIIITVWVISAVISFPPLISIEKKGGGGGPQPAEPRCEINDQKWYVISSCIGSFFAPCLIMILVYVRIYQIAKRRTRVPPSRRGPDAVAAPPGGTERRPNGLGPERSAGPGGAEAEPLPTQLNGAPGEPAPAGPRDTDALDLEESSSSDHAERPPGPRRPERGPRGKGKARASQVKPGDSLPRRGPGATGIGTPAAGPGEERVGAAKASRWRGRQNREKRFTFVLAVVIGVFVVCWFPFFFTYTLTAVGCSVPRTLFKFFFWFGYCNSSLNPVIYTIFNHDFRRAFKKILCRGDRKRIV

[5] = biological target: T2, Alpha-2A adrenergic receptor; format: functional, cell-based; remark: listed apart in the source
[6] = biological target: Cannabinoid receptor 1 (Homo sapiens, UniProt P21554); format: functional, cell-based
Cannabinoid receptor 1, sequence (P21554 whole entry): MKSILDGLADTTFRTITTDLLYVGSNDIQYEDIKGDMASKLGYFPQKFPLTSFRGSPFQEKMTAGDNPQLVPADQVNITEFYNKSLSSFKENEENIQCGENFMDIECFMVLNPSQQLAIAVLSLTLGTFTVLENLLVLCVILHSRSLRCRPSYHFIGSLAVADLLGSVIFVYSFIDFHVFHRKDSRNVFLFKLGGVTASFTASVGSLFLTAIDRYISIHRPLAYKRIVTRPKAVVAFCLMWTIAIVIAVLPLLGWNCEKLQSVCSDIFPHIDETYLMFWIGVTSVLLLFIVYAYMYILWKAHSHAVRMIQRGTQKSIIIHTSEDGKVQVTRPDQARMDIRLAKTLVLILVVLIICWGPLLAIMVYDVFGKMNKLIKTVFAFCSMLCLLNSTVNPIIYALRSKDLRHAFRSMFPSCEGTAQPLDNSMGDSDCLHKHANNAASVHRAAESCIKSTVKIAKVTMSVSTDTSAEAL

[7] = biological target: 5-hydroxytryptamine receptor 2B (Homo sapiens, UniProt P41595); format: functional, cell-based
5-hydroxytryptamine receptor 2B, sequence (P41595 whole entry): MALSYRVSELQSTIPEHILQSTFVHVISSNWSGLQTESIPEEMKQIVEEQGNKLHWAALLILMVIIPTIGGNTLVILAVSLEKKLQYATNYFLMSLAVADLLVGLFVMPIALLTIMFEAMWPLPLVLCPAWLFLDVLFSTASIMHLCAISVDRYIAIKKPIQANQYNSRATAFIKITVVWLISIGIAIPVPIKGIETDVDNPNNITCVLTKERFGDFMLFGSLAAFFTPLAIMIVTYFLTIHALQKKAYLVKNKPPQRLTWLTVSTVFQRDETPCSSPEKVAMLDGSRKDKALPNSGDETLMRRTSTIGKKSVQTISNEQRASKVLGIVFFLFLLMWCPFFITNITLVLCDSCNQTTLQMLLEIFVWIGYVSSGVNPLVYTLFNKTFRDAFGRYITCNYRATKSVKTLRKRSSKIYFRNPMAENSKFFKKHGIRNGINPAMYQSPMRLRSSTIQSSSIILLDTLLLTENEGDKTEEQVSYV

[8] = biological target: Adenosine receptor A2a (Homo sapiens, UniProt P29274)
Adenosine receptor A2a, sequence (P29274 whole entry): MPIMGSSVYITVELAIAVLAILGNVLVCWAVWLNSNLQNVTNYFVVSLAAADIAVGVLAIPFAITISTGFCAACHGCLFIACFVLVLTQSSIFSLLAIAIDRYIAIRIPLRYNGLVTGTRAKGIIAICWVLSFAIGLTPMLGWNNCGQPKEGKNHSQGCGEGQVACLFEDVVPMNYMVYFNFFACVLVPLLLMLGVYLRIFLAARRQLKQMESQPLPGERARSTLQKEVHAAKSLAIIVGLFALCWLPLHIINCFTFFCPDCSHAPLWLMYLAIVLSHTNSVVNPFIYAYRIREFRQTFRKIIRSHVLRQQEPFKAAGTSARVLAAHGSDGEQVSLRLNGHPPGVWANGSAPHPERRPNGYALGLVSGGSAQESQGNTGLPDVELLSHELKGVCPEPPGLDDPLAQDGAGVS

[9] = biological target: D(3) dopamine receptor (Homo sapiens, UniProt P35462)
D(3) dopamine receptor, sequence (P35462 whole entry): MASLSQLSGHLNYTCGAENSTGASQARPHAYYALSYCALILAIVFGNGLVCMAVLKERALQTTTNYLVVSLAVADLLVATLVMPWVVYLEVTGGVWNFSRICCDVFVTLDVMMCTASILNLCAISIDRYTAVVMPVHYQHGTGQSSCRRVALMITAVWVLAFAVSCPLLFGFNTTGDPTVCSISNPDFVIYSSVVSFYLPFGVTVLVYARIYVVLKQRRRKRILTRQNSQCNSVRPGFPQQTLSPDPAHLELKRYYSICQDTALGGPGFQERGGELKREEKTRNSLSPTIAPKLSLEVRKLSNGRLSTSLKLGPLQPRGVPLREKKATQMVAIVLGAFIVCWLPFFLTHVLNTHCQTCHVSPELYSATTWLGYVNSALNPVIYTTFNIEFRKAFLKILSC

[10] = biological target: T3, Prostaglandin G/H synthase 1 (Rattus norvegicus, UniProt Q63921); format: functional
T3 sequence (Q63921 whole entry): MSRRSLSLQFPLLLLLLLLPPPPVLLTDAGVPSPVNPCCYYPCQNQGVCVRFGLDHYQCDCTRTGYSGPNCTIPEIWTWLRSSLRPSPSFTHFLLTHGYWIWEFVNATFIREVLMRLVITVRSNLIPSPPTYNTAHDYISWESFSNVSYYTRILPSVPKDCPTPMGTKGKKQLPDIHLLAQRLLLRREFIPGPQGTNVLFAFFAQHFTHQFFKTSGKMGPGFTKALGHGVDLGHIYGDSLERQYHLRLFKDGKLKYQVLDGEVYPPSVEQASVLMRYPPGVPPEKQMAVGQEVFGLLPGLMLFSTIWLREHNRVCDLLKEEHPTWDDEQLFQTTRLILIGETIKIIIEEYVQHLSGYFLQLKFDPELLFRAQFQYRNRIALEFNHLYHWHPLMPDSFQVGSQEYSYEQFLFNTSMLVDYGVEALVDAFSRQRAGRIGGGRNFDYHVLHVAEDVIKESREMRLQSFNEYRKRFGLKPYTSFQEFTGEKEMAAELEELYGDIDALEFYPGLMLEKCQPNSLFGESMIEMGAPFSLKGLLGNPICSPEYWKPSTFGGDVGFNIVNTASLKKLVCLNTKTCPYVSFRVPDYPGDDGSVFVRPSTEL

[11] = biological target: Beta-1 adrenergic receptor (Homo sapiens, UniProt P08588); format: functional
Beta-1 adrenergic receptor, sequence (P08588 whole entry): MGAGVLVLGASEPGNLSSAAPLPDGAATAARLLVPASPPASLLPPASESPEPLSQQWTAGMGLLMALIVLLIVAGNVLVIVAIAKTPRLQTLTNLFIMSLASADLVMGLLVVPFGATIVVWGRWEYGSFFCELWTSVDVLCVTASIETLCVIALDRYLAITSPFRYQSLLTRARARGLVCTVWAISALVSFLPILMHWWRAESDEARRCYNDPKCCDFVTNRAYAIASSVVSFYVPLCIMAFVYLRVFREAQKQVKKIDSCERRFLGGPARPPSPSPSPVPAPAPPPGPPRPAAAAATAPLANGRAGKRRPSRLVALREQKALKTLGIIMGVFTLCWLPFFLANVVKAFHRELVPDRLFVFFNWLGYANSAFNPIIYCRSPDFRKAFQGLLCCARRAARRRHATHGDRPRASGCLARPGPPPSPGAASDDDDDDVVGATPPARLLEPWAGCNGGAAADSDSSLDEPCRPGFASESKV
Further: assay procedure not described here.

Row | SMILES | AC50 [1] [µM] | AC50 [2] [µM] | AC50 [3] [µM] | AC50 [4] [µM] | AC50 [5] [µM] | AC50 [6] [µM] | AC50 [7] [µM] | AC50 [8] [µM] | AC50 [9] [µM] | AC50 [10] [µM] | AC50 [11] [µM]
1 | CC(C)(Oc1ccc(CCNC(=O)c2ccc(Cl)cc2)cc1)C(=O)O [BEZAFIBRATE] | > 30 | > 10 | > 10 | > 10 | > 10 | > 30 | > 10 | > 10 | > 30 | > 10 | > 10
2 | C/C=C(/C(=C/C)c1ccc(O)cc1)c1ccc(O)cc1 [DIENESTROL] |  | > 10 | > 10 | > 10 | > 10 |  | > 10 | > 30 | > 30 | > 30 | > 10
3 | COc1ccc([C@@H]2CC(=O)c3c(O)cc(O)cc3O2)cc1O [HESPERETIN] |  | > 10 | > 30 | > 10 | > 10 |  | > 10 | > 10 | > 30 | 30.7 | > 10
4 | CNCCc1ccc(OC(=O)C(C)C)c(OC(=O)C(C)C)c1 [IBOPAMINE] |  | > 30 | > 30 | 3.48 |  | > 30 | > 30 | > 30 | 0.767 | > 30 | > 30
5 | CN(C)CCCN1c2ccccc2CCc2ccccc21 [IMIPRAMINE] | 0.41 | > 10 | 0.0804 | > 10 | > 10 | > 30 | > 10 | > 30 | 0.41 | > 30 | > 10
6 | CCC[C@@H]1C[C@@H](C(=O)N[C@@H]([C@H]2O[C@H](SC)[C@H](O)[C@@H](O)[C@H]2O)[C@@H](C)O)N(C)C1 [LINCOMYCIN] | > 30 | > 10 | > 10 | > 30 | > 30 | > 30 | > 30 | > 10 | > 30 | > 10 | > 10
7 | C=C1c2cccc(O)c2C(=O)C2=C(O)[C@]3(O)C(=O)C(C(N)=O)=C(O)[C@@H](N(C)C)[C@@H]3[C@@H](O)[C@H]12 [METHACYCLINE] |  | > 10 | > 10 | > 10 | > 10 |  | > 10 | > 30 | > 30 | > 30 | > 10
8 | Cc1ccccc1N1C(=O)c2cc(S(N)(=O)=O)c(Cl)cc2NC1C (stereo unspecified) [METOLAZONE] |  | > 10 | > 10 | > 10 | > 10 |  | > 10 | > 10 | > 30 | > 10 | > 10
9 | O=C(O)c1cccnc1Nc1cccc(C(F)(F)F)c1 [NIFLUMIC ACID] |  | > 10 | > 10 | > 10 | > 10 |  | > 10 | > 10 | > 30 | 30 | > 10
10 | CN[C@@H](C)[C@@H](O)c1ccccc1 [PSEUDOEPHEDRINE] |  | > 10 | > 10 | > 10 | > 10 |  | > 10 | > 30 | > 10 | > 30 | > 10
11 | CCCN1CC(NS(=O)(=O)N(CC)CC)CC2Cc3c(O)cccc3CC21 (stereo unspecified) [QUINAGOLIDE] |  | > 30 | 29 | > 30 | > 30 | > 30 | 3.67 | > 30 | 0.0028 | > 30 | > 30
12 | C[C@]12CCC(=O)C[C@@H]1CC[C@@H]1[C@@H]2CC[C@]2(C)[C@@H](O)CC[C@@H]12 [STANOLONE] | > 30 | > 30 | > 30 | > 30 | > 30 |  | > 30 | > 30 | > 30 | > 30 | > 30
